Results published in the NIST ThermoML archive (doi:10.1016/j.jct.2017.03.026).

Settings: 101.33 kPa, Crystal, Small (less than 1 g) adiabatic calorimetry

O.O.O.O.O.O=S(=O)([O-])[O-].[Cu+2] [copper(II) sulfate pentahydrate]
Settings | molar entropy [J/K/mol]
5 K | 1.205
10 K | 1.688
15 K | 2.669
20 K | 4.429
25 K | 6.984
30 K | 10.25
35 K | 14.13
40 K | 18.55
45 K | 23.35
50 K | 28.39
55 K | 33.74
60 K | 39.25
65 K | 44.9
70 K | 50.64
75 K | 56.43
80 K | 62.26
85 K | 68.09
90 K | 73.92
95 K | 79.73
100 K | 85.52
110 K | 97.04
120 K | 108.5
130 K | 119.8
140 K | 131
150 K | 142.1
160 K | 153.1
170 K | 164
180 K | 174.7
190 K | 185.4
200 K | 196
210 K | 206.5
220 K | 216.9
230 K | 227.2
240 K | 237.5
250 K | 247.6
260 K | 257.7
270 K | 267.6
273.15 K | 270.7
280 K | 277.5
290 K | 287.3
298.15 K | 295.2
300 K | 297
310 K | 306.6
320 K | 316.1
